Laboratory results published in ChEMBL document CHEMBL5725520, “Benzoisothiazole compounds and methods of treating schizophrenia” (2017).

What was measured:
[1] = Dopamine D3 Receptor Binding Test: The experiment is carried out by the method according to Journal of Pharmacology and Experimental Therapeutics 2010, 333(1): 328. With [3H]methyl-spiperone (0.3 nM) as the ligand and (+)-butaclamol (10 LM) for determining non-specific binding, binding tests are carried out on human recombinant D3 receptor (expressed in CHO cells).; type: cell-based
[2] = target: D(2) dopamine receptor (Homo sapiens, UniProt P14416); experiment: Receptor Binding Test: 1. Experimental Materials:(1) D2 receptor Cell Transfection:This experiment utilizes the plasmid vector containing the gene of D2 receptor protein for transfecting HEK293 cells by calcium phosphate transfection method.
Chain of D(2) dopamine receptor (P14416 whole entry): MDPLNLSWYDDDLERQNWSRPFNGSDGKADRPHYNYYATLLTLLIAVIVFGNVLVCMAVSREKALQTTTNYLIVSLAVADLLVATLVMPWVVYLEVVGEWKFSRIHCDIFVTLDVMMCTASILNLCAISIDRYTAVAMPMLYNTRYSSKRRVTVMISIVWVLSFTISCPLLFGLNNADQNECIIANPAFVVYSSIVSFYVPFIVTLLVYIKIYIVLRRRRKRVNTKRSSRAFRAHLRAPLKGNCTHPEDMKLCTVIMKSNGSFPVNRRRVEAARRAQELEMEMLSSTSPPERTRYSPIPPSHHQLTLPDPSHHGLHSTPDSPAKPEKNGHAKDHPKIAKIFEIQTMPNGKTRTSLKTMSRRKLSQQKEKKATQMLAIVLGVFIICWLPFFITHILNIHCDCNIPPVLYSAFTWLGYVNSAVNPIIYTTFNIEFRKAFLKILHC

[3] = target: T1, 5-hydroxytryptamine receptor 1A (Homo sapiens, UniProt P08908); experiment: 5-HT1A Receptor Binding Test: 1. Experimental Materials:The isotopic ligand of 5-H1A receptor […] (purchased from PE Corporation), (+)5-hydroxytryptamine (purchased from Sigma Corporation), GF/B glassfiber filter (purchased from Whatman Corporation), fat-soluble scintillation fluid: PPO and POPOP (purchased from Shanghai No. 1 Reagent Factory), toluene (purchased from Sinopharm Chemical Reagent Co., Ltd), and Tris (imported and subpackaged).Cells: HEK-293 cells stably expressing 5-HT1A receptors as obtained by gene recombination are cultured for 3-5 days in cell culture medium DMEM supplemented with 10% serum. […] Total binding tube […] 20 μL D1 Binding Buffer 20 μL Cells 160 μL Non-specific tube […] 20 μL 5-HT(10−4) 20 μL Cells 160 μL Tube with the […] 20 μL compound to be tested The compound to be tested 20 μL Cells 160 μL The components are mixed to homogeneity, and then the above tubes are transferred to water bath at 30° C. (1 h), removed into ice bath immediately, and suction filtered on Harvest (with ice cold Tris eluate for 5 times).
T1 sequence (P08908 whole entry): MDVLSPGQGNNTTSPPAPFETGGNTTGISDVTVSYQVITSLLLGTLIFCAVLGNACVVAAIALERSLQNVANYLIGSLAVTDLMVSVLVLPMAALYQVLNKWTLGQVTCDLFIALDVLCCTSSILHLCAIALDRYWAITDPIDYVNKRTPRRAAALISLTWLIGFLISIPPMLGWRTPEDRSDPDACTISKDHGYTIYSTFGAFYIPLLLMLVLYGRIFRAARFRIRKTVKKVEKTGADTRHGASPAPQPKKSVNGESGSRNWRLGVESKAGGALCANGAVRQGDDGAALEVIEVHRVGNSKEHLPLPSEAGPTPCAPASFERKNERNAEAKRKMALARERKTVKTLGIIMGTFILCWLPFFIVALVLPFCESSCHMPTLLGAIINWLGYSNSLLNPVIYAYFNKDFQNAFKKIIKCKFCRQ

Compound | Ki [1] [nM] | Ki [2] [nM] | Ki [3] [nM]
COC(=O)N[C@H]1CC[C@H](CCN2CCN(c3nsc4ccccc34)CC2)CC1 | 0.1 |  | 
CC(C)COC(=O)N[C@H]1CC[C@H](CCN2CCN(c3nsc4ccccc34)CC2)CC1 | 0.093 |  | 
O=C(N[C@H]1CC[C@H](CCN2CCN(c3nsc4ccccc34)CC2)CC1)OC1CCCCC1 | 4.3 | 11.8 | 1.69
O=C(N[C@H]1CC[C@@H](CCN2CCN(c3nsc4ccccc34)CC2)CC1)OCc1ccccc1 | 1.03 | 0.98 | 2.14
Cc1ccccc1OC(=O)N[C@H]1CC[C@H](CCN2CCN(c3nsc4ccccc34)CC2)CC1 | 8.49 |  | 
CCOC(=O)N[C@H]1CC[C@@H](CCN2CCN(c3nsc4ccccc34)CC2)CC1 | 0.46 | 1.97 | 0.97
COC(=O)N[C@H]1CC[C@@H](CCN2CCN(c3nsc4ccccc34)CC2)CC1 | 0.087 |  | 2.55
O=C(N[C@H]1CC[C@H](CCN2CCN(c3nsc4ccccc34)CC2)CC1)Oc1ccccc1 | 0.74 |  | 
O=C(N[C@H]1CC[C@H](CCN2CCN(c3nsc4ccccc34)CC2)CC1)Oc1ccc([N+](=O)[O-])cc1 | 7.12 | 12.4 | 
O=C(N[C@H]1CC[C@H](CCN2CCN(c3nsc4ccccc34)CC2)CC1)Oc1ccc(Cl)cc1 | 11.6 |  | 
COc1cccc(OC(=O)N[C@H]2CC[C@H](CCN3CCN(c4nsc5ccccc45)CC3)CC2)c1 | 1.05 |  | 
O=C(N[C@H]1CC[C@H](CCN2CCN(c3nsc4ccccc34)CC2)CC1)OCc1ccccc1 | 0.061 | 1.6 | 0.79
O=C(N[C@H]1CC[C@H](CCN2CCN(c3nsc4ccccc34)CC2)CC1)OC1CC1 | 1.81 | 3.26 | 3.95
